Values of other authors in US7381426B2, “Targeted delivery of bioactive factors to the systemic skeleton” (Southwest Research Institute, priority 2002, dated 2008).

Tested on: hindlimb unloading in rats
Conditions: infusion 2 μg/kg/day, hindlimb unloaded rats

TGF-β
effect on unloading-induced bone changes: corrects the decrease in bone mass, calcium content, osteoblast number and mineralization rate
